Results published in article PMC6060383, “Synthesis and pharmacological evaluation of novel isoquinoline N-sulphonylhydrazones designed as ROCK inhibitors” (Journal of Enzyme Inhibition and Medicinal Chemistry, 2018).
≈ marks a conversion by molar mass, not a printed value. Entries after “also recorded” stand apart in the source; their conditions may differ.

Columns and labels:
IKK-β = biological target: T1, IKK-β (Homo sapiens, UniProt O14920); experiment: IKK-β inhibition screening; type: biochemical; settings: screening concentration of 10 μM; data not shown
T1 sequence (O14920 1-756): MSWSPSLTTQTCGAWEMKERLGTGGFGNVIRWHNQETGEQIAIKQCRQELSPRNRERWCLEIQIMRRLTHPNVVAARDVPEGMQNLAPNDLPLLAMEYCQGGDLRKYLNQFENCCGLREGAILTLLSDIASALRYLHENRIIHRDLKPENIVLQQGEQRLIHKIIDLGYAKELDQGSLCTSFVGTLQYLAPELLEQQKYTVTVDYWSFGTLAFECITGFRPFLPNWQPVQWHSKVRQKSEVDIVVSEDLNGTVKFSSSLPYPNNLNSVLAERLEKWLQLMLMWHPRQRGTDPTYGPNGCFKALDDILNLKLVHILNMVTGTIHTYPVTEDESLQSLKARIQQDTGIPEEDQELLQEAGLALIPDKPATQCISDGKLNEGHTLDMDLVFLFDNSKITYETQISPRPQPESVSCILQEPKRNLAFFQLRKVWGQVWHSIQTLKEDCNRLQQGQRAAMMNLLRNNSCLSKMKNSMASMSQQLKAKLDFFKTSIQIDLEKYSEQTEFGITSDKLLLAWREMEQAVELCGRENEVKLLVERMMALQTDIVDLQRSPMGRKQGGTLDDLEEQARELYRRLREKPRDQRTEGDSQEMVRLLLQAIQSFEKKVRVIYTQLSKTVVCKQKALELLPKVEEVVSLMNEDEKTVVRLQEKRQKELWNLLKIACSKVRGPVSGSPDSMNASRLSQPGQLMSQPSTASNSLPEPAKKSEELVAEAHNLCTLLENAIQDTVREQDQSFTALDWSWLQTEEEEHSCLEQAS
From the text: Furthermore, considering that 2 (LASSBio-1524) was used in the structural design of this new family of ROCK inhibitors we also investigated the ability of 5b (LASSBio-2020) and 11 (LASSBio-2065) to inhibit IKK-β.

[1] = Chemical stability study (pH 2.0 and pH 7.4 buffers); type: physicochemical; settings: 37 °C
Experimental: Two microliters ([…]) of a concentrated solution of the compound under examination (40 mM stock solution solubilized in DMSO) and 248 μL of acid (0.2 M potassium chloride and 0.2 M HCl; pH 2.0) or neutral (phosphate dibasic, pH 7.4) buffer were added to a 2 ml Eppendorf microtube. After vortexing, the mixture was placed in a water bath at 37 °C under vigorous stirring for 0, 30, 60, 120, and 240 min. After each reaction, 248 μL of basic buffer (phosphate buffer, pH 8.4) was added to neutralize the pH of the medium in the experiments using acidic buffer. The compound was extracted using 1 ml of acetonitrile followed by vigorous vortexing and freezing of the aqueous phase (−10 °C). The organic phase was separated, filtered, and analysed using an HPLC-PDA (acetonitrile/water […], 0.05% of TFA).
Due to the possible chemical instability of the imine functional group present in the N-sulphonylhydrazone framework, the stability profiles of compounds 5b (LASSBio-2020) and 11 (LASSBio-2065) were determined. The study was conducted under two conditions, pH 2.0 and pH 7.4, to mimic the acidic stomach and the neutral plasma environments, respectively. The compounds were examined in the presence of acid (pH 2) and neutral (pH 7.4) buffers with stirring for 240 min at a controlled temperature (37 °C).

[2] = biological target: T2, ROCK2 human recombinant enzyme (Homo sapiens, UniProt O75116); experiment: ROCK2 inhibition assay (Eurofins-Cerep, phosphorylation of Ulight-RRRSLLE substrate); type: biochemical; settings: for IC50: human recombinant ROCK2, five-point assay, mean of two experiments; for inhibition at 3 µM: screening concentration 3 μM, average of two experiments
T2 construct: purchased EUROFINS-CEREP France (contract assay, study numbers 100033685 and 100040481); host or cells: Sf21 insect cells
T2 sequence (O75116 1-543 limits assumed): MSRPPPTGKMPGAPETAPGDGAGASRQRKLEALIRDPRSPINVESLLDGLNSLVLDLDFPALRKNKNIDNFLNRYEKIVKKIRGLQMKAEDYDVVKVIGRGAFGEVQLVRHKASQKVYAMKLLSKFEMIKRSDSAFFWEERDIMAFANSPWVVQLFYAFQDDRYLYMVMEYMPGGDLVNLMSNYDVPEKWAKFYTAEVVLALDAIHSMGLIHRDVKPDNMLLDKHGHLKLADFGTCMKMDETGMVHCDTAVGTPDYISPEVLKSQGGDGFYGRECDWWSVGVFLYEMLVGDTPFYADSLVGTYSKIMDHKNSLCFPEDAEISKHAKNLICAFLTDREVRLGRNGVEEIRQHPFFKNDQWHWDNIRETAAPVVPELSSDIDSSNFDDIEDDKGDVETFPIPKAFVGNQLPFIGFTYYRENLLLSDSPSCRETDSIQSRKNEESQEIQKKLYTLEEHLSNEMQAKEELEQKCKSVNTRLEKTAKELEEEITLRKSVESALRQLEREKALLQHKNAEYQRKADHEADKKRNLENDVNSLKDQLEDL
Experimental: (§1) The analysis was performed using software developed at Cerep (Hill software) and GraphPad Prism® 5.0 (GraphPad Software, Inc., San Diego, CA) and validated through comparison with results generated using the SigmaPlot 4.0 software.
(§2) Prior to this assay, we evaluated the solubility of these compounds in water (buffer pH 7.4) to ensure that the inhibition percentages were not influenced by the precipitation of the compounds under test conditions.

MDA-MB 231 cells [3] = experiment: Cell-based scratch assay (cell migration); set-up: species or system human; settings: 10 or 30 μM, 24 h
Experimental: (§3) The human mammary gland/breast epithelial cell line MDA-MB 231 was obtained from the American Type Culture Collection (ATCC® HTB-26™) and this use was approved by the Ethics Committee for Animal Care and Use in Scientific Research from the Federal University of Rio de Janeiro. Cells were routinely grown in RPMI medium containing 10% foetal bovine serum (FBS), 1% L-glutamine and 1% penicillin-streptomycin, in a humidified 5% CO2 atmosphere at 37 °C. Cells were cultured up to 70–100% confluence and then some cultures were treated with the compounds at different concentrations for 24 or 48 h. All cell culture reagents were purchased from Invitrogen (São Paulo, Brazil).
Cells were cultured in 24-well culture plates for 24 h up to 90–100% confluence. Scratched wound lines were created with the help of a 200 μl micropipette tip. […] Images were acquired with an Olympus DP71 digital camera (Olympus, Japan) and the wound area was quantified using Fiji software (based on ImageJ, http://imageJ.nih.gov/ij/) from three different experiments.
The functions of Rho-kinase include the regulation of cellular contraction, motility, morphology, polarity, division, and gene expression. Therefore, we performed a cell-based scratch assay followed by the quantification of the wounded area to analyse whether compounds 5b (LASSBio-2020) and 11 (LASSBio-2065) altered cell migration. […]

MDA-MB 231 cells [4] = experiment: Plasma membrane integrity assay (LDH); type: cell-based, human; settings: 0.1 to 30 µM, 24 and 48 h
Experimental: as §3
To measure plasma membrane integrity, we assayed serum lactate dehydrogenase (LDH) levels and calculated percentages of LDH release to the medium. LDH activity was measured spectrophotometrically using a commercial kit (Doles, Goiás, Brazil). […] Then, 10 μl of NAD were added and absorbance intensities were measured in a microplate reader (FlexStation® 3 Reader, Molecular Devices) at 490 nm. The percentage of LDH release was calculated by ([LDH] sample ×100)/total [LDH]. […]
We also analysed the plasma membrane integrity by measuring the serum lactate dehydrogenase (LDH) levels in the culture medium to confirm the cell viability data. […]

[5] = biological target: T3, ROCK1 human recombinant enzyme (Homo sapiens, UniProt Q13464); experiment: ROCK1 inhibition assay (Eurofins-Cerep, phosphorylation of Ulight-RRRSLLE substrate); type: biochemical; settings: for IC50: human recombinant ROCK1, five-point assay, mean of two experiments; for inhibition at 3 µM: screening concentration 3 μM, average of two experiments
T3 construct: purchased EUROFINS-CEREP France (contract assay, study numbers 100033685 and 100040481); host or cells: Sf9 insect cells
T3 sequence (Q13464 whole entry): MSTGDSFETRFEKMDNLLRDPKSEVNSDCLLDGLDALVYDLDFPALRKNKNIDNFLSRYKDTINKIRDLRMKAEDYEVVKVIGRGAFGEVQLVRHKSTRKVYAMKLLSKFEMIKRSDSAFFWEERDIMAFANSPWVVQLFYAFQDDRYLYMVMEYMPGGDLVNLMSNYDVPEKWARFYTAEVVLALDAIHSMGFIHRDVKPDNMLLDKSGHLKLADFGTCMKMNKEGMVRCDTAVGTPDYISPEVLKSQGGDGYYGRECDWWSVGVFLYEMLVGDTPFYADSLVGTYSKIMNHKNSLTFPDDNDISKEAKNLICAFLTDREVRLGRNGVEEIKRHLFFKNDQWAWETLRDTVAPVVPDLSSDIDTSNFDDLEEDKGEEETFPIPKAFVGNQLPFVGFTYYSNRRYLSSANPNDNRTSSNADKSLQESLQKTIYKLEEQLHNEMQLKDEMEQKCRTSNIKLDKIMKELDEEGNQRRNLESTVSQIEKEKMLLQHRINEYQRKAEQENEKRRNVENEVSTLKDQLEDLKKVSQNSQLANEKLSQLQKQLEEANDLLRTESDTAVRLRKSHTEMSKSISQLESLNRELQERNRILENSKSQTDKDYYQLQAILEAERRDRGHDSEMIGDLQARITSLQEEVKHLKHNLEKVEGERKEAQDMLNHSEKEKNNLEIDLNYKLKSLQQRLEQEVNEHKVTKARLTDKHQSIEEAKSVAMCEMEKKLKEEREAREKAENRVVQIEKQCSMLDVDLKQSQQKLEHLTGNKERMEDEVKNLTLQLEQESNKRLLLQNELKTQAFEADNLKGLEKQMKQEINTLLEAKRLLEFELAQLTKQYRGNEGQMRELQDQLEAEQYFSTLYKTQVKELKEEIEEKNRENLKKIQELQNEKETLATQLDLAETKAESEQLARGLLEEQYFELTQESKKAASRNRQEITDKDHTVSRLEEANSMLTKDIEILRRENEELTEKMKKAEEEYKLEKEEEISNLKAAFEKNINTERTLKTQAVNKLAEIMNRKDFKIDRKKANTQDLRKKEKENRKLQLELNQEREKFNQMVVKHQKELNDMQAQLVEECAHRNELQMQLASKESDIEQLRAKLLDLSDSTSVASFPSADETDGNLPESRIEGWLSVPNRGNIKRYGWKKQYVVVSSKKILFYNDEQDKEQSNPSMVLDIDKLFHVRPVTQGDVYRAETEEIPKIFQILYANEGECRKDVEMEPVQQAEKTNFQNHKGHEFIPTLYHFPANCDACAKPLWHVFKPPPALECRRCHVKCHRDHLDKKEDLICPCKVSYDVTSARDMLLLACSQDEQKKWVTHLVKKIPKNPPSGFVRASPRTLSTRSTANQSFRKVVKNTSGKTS
Experimental: as §1, §2

[6] = Water solubility assay (UV spectrophotometric method); type: physicochemical; settings: aqueous buffer, thermodynamic from solid, water (buffer pH 7.4), stirring 4 h at 37 °C
Experimental: The solubility assay was performed considering the absorptivity of compounds under ultraviolet spectroscopy as described by Schneider et al.[20] Assay wavelength was determined through λmax characteristic of each compound. Saturated aqueous solutions were prepared (0.8–1.0 mg/mL) and kept under stirring for 4 h at 37 °C. The supernatant was filtered in […] filters and transferred to a quartz cuvette (10 mm) for spectra acquisition. Solubility was determined by linear regression used as Excel graph plots, solutions were prepared by dilutions of the original solution in methanol. Data were collected in triplicate and the mean values were used to create the graph plots. The correlation coefficient (R^2) values were between 0.9982 and 1.
The N-sulphonylhydrazone derivatives 5a–h were evaluated for their ability to inhibit both ROCK1 and ROCK2 isoforms by measuring the phosphorylation of the Ulight-RRRSLLE substrate using human recombinant enzymes expressed in Sf9[23] and Sf21^24 cells, respectively. Prior to this assay, we evaluated the solubility of these compounds in water (buffer pH 7.4) to ensure that the inhibition percentages were not influenced by the precipitation of the compounds under test conditions. The enzymatic assay was initially performed at a screening concentration of 3 μM, which is capable of guaranteeing the solubility of most of the compounds, and the obtained results are shown in Table 2.

[7] = ROCK inhibition assays, 1 to 50 µM

| SMILES | melting point [°C] | solubility at 4 h [6] [µM] | inhibition at 3 µM [2] [%] | inhibition at 3 µM [5] [%] | further results |
| --- | --- | --- | --- | --- | --- |
| CN(/N=C/c1ccccc1)S(=O)(=O)c1cccc2cnccc12 [Compound 11, (E)-N′-benzylidene-N-methylisoquinoline-5-sulphonohydrazide] | 108 |  |  |  | IKK-β inhibition (result in words) (IKK-β): none of these N-sulphonylhydrazone derivatives was able to inhibit IKK-β; recovery percentage under acidic conditions ([1]; pH 2, after 30 min of incubation): 88%; degradation in neutral medium ([1]; pH 7.4, after 4 h): less than 20%; decrease in the IC50 for ROCK2 relative to 5b ([2]; N-methylated 11 versus 5b): ~1.8 fold; IC50 ([2]; 1 to 50 µM): 3.8 µM; effect on cell migration (result in words) (MDA-MB 231 cells [3]): inhibited MDA-MB 231 cell migration; also recorded: effective at inhibiting cell migration; LDH levels in culture medium / cytotoxicity in LDH assay (result in words) (MDA-MB 231 cells [4]): not altered; decrease in the IC50 for ROCK1 relative to 5b ([5]; N-methylated 11 versus 5b): approximately 4 fold; IC50 ([5]; 1 to 50 µM): 3.1 µM |
| O=S(=O)(N/N=C/c1ccc(B(O)O)cc1)c1cccc2cnccc12 [Compound 5f, (E)-(4-((2-(isoquinolin-5-ylsulphonyl)hydrazono)methyl)phenyl)boronic acid] | > 250 | 58 (≈ 20.6 µg/mL) | 7.3 | 2.7 |  |
| CN(C)c1ccc(/C=N/NS(=O)(=O)c2cccc3cnccc23)cc1 [Compound 5a, (E)-N′-(4-(dimethylamino)benzylidene)isoquinoline-5-sulphonohydrazide] | 165 | 5.4 (≈ 1.91 µg/mL) | 0.6 | 4.1 |  |
| O=C(N/N=C/c1ccccc1)c1cccc2cnccc12 [Compound 10, (E)-N′-benzylidene isoquinoline-5-carbohydrazide] |  |  |  |  | ROCK2 inhibition (result in words) [2, 7]: completely inactive; IC50 ([2]; 1 to 50 µM): > 50 µM; ROCK1 inhibition (result in words) [5, 7]: completely inactive; IC50 ([5]; 1 to 50 µM): > 50 µM |
| O=S(=O)(N/N=C/c1cccnc1)c1cccc2cnccc12 [Compound 5d, (E)-N′-(pyridin-3-ylmethylene)isoquinoline-5-sulphonohydrazide] | 168 | > 64 | 7.6 | 4.5 |  |
| CC(=O)Nc1ccc(/C=N/NS(=O)(=O)c2cccc3cnccc23)cc1 [Compound 5e, (E)-N-(4-((2-(isoquinolin-5-ylsulphonyl)hydrazono)methyl)phenyl)acetamide] | 173 | 4.3 (≈ 1.58 µg/mL) | -9.1 | 4.6 |  |
| Cl.O=S(=O)(N/N=C/C1CCNCC1)c1cccc2cnccc12 [Compound 5h, (E)-N′-(piperidin-4-ylmethylene)isoquinoline-5-sulphonohydrazide hydrochloride] | 186 | > 84.5 | 3.9 | 6.9 |  |
| O=[N+]([O-])c1ccc(/C=N/NS(=O)(=O)c2cccc3cnccc23)cc1 [Compound 5c, (E)-N′-(4-nitrobenzylidene)isoquinoline-5-sulphonohydrazide] | 168 | 26 (≈ 9.27 µg/mL) | 8.1 | 1.1 |  |
| O=S(=O)(N/N=C/c1ccc(-c2ccccc2)cc1)c1cccc2cnccc12 [Compound 5g, (E)-N′-([1,1'-biphenyl]-4-ylmethylene)isoquinoline-5-sulphonohydrazide] | 166 | < 0.5 | 2.4 | -1.1 |  |
